Assay results published in patent US9545447B2, “Polymer-drug systems” (THE TEXAS A&M UNIVERSITY SYSTEM, priority 2013, dated 2017).
Like-named read-outs stand apart in the source and are kept apart here.

Key:
[1] = Saturate concentration of PTX in PBS buffer by UV; assay type: physicochemical
Experimental: The saturate concentration is around 1.7 ug/mL. PTX concentrations as low as 6.25 ng/mL were detected.

[2] = system: KB cells, a human nasal pharyngeal cancer cell line; assay: Cell viability (WST-1), KB cells; assay type: cell-based; conditions: Table 1, 72 h, PTX as free PTX
Experimental: Polymer paclitaxel and free paclitaxel were tested in KB cells, a human nasal pharyngeal cancer cell line and A549 cells, a human lung carcinoma cell line. KB and A549 cells (ATCC, Manassas, Va.) were maintained in monolayer cultures in folate free RPMI (Life Technologies, Carlsbad, Calif.) and F-12K media (Mediatech, Manassas, Va.) respectively, supplemented with 10% fetal bovine serum and penicillin/streptomycin antibiotics. For screening purposes 2,500 cells in 100 μL of complete cell culture media were plated in a 96 well plate (Corning, Lowell, Mass.) in triplicates and were then incubated for 24 h in a humidified CO2 cell culture incubator maintained at 37° C. Serial dilutions of polymer-paclitaxel conjugates and paclitaxel were prepared in PBS and added to cells in a volume of 10 μL. The cells were either incubated for a short period of 2 h or for longer continuous incubation of 72 h. After 2 h incubation, the media was replaced with 110 μL of fresh complete RPMI. Cell viability was assessed by using a colorimetric WST-1 cell proliferation kit (Roche, Indianapolis, Ind.) and following manufacturer's instructions. Cell viability was calculated as a percentage of the control cells treated with no drugs. […]

[3] = system: Human ovarian adenocarcinoma cells (OVCAR-3); assay: Cytotoxicity assay (MTS), OVCAR-3; assay type: cell-based
Experimental: (§1) Human ovarian adenocarcinoma cells (OVCAR-3) (5×10^3 cells/well) and RAW 264.7 mouse macrophages (2×10^4 cells/well) were plated in 96-well plate in RPMI-1640 medium and Dulbecco's Modified Eagle's Medium (DMEM) (20% and 10% fetal bovine serum, for the OVCAR-3 and RAW 264.7, respectively and 1% penicillin/streptomycin). […] The paclitaxel conjugate was prepared as described previously, and the Taxol®-mimicking formulation was prepared in similar composition to Taxol® (i.e. Cremophor-EL and ethanol, 1:1 v/v). For each well, 20 μL of every formulation was added to 100 μL of the medium. The cells were incubated with the formulations for 72 h and washed once with phosphate-buffered saline (PBS) and 100 μL of the complete medium was added to the cells. 20 μL of the MTS combined reagent was added to each well (Cell Titer 96® Aqueous Non-Radioactive Cell Proliferation Assay, Promega Co., Madison, Wis.). […] Absorbance was measured at 490 nm using SpectraMax M5 (Molecular Devices Co., Sunnyvale, Calif.). The cell viability was calculated based on the relative absorbance to the control untreated cells. The IC50 values were calculated using GraphPad Prism four-parameter fit, considering the 0% and 100% viabilities correspond to the medium control (no cells) and cells-treated with PBS, respectively.

[4] = system: RAW 264.7 mouse macrophages; assay: Cytotoxicity assay (MTS), RAW 264.7; assay type: cell-based
Experimental: as §1

- saturate concentration of PTX [1]: around 1.7 ug/mL
- IC50 [2]: 0.0044 µM
Structure (SMILES): CC(=O)O[C@H]1C(=O)[C@@]2(C)[C@H]([C@H](OC(=O)c3ccccc3)[C@]3(O)C[C@H](OC(=O)[C@H](O)[C@@H](NC(=O)c4ccccc4)c4ccccc4)C(C)=C1C3(C)C)[C@]1(OC(C)=O)CO[C@@H]1C[C@@H]2O [PTX, paclitaxel]
- IC50 ([3]; Table 1, 72 h, PTX as Taxol®-mimicking formulation (Cremophor-EL and ethanol, 1:1 v/v), read-out: IC50 (μM) OVCAR-3): 0.007 µM
- IC50 ([3]; Table 2, 72 hours, PTX as Taxol-mimicking formulation, read-out: IC50 (μM)in OVCAR-3): 0.007 µM
- IC50 ([4]; RAW264.7, Table 1, 72 h, PTX as Taxol®-mimicking formulation (Cremophor-EL and ethanol, 1:1 v/v), read-out: IC50 (μM) RAW 264.7): 0.044 µM
- IC50 ([4]; RAW264.7, Table 2, 72 hours, PTX as Taxol-mimicking formulation, read-out: IC50 (μM) in RAW 264.7): 0.04 µM
